The assay addresses human recombinant GPR65 (Homo sapiens, UniProt Q8IYL9). Put plainly: Human GPR65 cAMP HTRF antagonist assay. As to conditions: 1321N1 cells stably expressing human recombinant GPR65, assay pH 7.2, read-out: hGPR65 IC50. The assay is classed as cell-based. On the procedure:
Human GPR65 Cyclic Adenosine Monophosphate (cAMP) Homogeneous Time Resolved Fluorescence (HTRF) Antagonist Assay Procedure
IC50 data was obtained by the following procedure:
1321N1 human astrocytoma cells stably expressing human recombinant GPR65 (1321N1-hrGPR65 cells, EuroscreenFast) were cultured according to the vendor's instructions.
Compounds were tested for their ability to antagonise GPR65, through measuring the concentration of cytoplasmic cAMP following treatment of the cells at a pH of 7.2 to activate GPR65 signalling and addition of the compound to be tested. The extent to which the expected rise in cAMP concentration upon GPR65 activation was suppressed by the added compound is indicative of its potency. The assay was carried out according to EuroscreenFast assay Methodology as follows.
On the day of the assay, test compounds were added to 384-well, low volume, white microtiter plates by acoustic dispensing. KRH buffer (5 mM KCl, 1.25 mM MgSO4, 124 mM NaCl, 25 mM HEPES, 13.3 mM Glucose, 1.25 mM KH2PO4 and 1.45 mM CaCl2) was adjusted to pH 6.5, pH 7.6 and pH 8.4 by adding NaOH. 1321N1-hGPR65 cells were rapidly thawed and diluted in KRH, pH 7.6 prior to centrifugation at 300×g for 5 min and resuspension in assay buffer (KRH, pH 7.6, supplemented with 1 mM 3-isobutyl-1-methylxanthine (IBMX) and 200 μM ethylenediaminetetraacetic acid (EDTA)). Cells were added to assay plates at a density of 2,000 cells per well in a volume of 5 μl. Assay plates were briefly centrifuged at 100×g and then incubated at room temperature for 30 min. Cells were stimulated by the addition of 5 μL KRH, pH 6.5, to achieve an assay pH of 7.2, while control wells received 5 μl KRH, pH 8.4 to achieve an assay pH of 7.9. Assay plates were briefly centrifuged at 100×g and then incubated at room temperature for 30 min.
Accumulation of cAMP was detected by cAMP HTRF kit (Cisbio). d2-labeled cAMP and cryptate-labeled anti-cAMP antibody in Lysis and Detection Buffer (Cisbio) were added to assay plates, and the plates were incubated at room temperature for 1 h. HTRF measurements were performed using a Pherastar FSX instrument. Acceptor and donor emission signals were measured at 665 nm and 620 nm, respectively, and HTRF ratios were calculated as signal665 nm/signal620nm×10^4. Data were normalised to high and low control values and fitted with 4-parameter logistic regression to determine hGPR65 IC50 values for the test compounds, which are shown in Table 1.
A general note: TR-FRET usually uses a lanthanide donor and a delayed reading to cut background.

Structures are written as SMILES.

Sequence of human recombinant GPR65 (Q8IYL9 whole entry): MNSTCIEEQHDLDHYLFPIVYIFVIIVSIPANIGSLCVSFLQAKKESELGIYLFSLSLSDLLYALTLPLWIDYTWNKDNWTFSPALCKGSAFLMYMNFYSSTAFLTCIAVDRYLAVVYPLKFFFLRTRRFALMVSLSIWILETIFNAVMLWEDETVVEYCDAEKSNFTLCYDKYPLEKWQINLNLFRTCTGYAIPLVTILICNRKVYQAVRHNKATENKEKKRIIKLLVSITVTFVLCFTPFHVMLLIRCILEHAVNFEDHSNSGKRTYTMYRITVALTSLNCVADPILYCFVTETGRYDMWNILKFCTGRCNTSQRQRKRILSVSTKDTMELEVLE

Take `CC1CN(C(=O)Nc2cc(Cl)c(C(F)(F)F)cc2F)Cc2c[nH]c(=O)cc21` (racemic) [Compound 21, (±)-N-(5-chloro-2-fluoro-4-(trifluoromethyl)phenyl)-4-methyl-6-oxo-3,4,6,7-tetrahydro-2,7-naphthyridine-2(1H)-carboxamide]: the half-inhibitory concentration (IC50) (in general, the point on the concentration scale where inhibition reaches its midpoint) was under 500 nM.
Consider `C[C@@H]1CN(C(=O)Nc2cc(Cl)c(C(F)(F)F)cc2F)Cc2c[nH]c(=O)cc21` (single isomer, unassigned; isomer 1) [Compound 25, N-(5-chloro-2-fluoro-4-(trifluoromethyl)phenyl)-4-methyl-6-oxo-3,4,6,7-tetrahydro-2,7-naphthyridine-2(1H)-carboxamide isomer 1], for which the IC50 is under 500 nM.
For `C[C@@H]1CN(C(=O)Nc2cc(Cl)c(C(F)(F)F)cc2F)Cc2ccnc(F)c21` (single isomer, unassigned; isomer 1) [Compound 28, N-(5-chloro-2-fluoro-4-(trifluoromethyl)phenyl)-5-fluoro-4-methyl-3,4-dihydro-2,6-naphthyridine-2(1H)-carboxamide isomer 1] the value was under 500 nM; for `C[C@H]1CN(C(=O)Nc2cc(Cl)c(C(F)(F)F)cc2F)Cc2c[nH]c(=O)cc21` (single isomer, unassigned; isomer 2) [Compound 26, N-(5-chloro-2-fluoro-4-(trifluoromethyl)phenyl)-4-methyl-6-oxo-3,4,6,7-tetrahydro-2,7-naphthyridine-2(1H)-carboxamide isomer 2], under 500 nM.
`C[C@H]1CN(C(=O)Nc2cc(Cl)c(C(F)(F)F)cc2F)Cc2ccnc(F)c21` (single isomer, unassigned; isomer 2) [Compound 29, N-(5-chloro-2-fluoro-4-(trifluoromethyl)phenyl)-5-fluoro-4-methyl-3,4-dihydro-2,6-naphthyridine-2(1H)-carboxamide isomer 2]: the IC50 was under 500 nM.
For `O=C(Nc1cc(Br)c(C(F)(F)F)cc1F)N1CCc2cc(=O)[nH]cc2C1` [Compound 1, N-(5-bromo-2-fluoro-4-(trifluoromethyl)phenyl)-6-oxo-3,4,6,7-tetrahydro-2,7-naphthyridine-2(1H)-carboxamide] the value was under 500 nM; for `O=C(Nc1cc(Cl)c(C(F)(F)F)cc1F)N1CCc2cc(=O)[nH]cc2C1` [Compound 2, N-(5-Chloro-2-fluoro-4-(trifluoromethyl)phenyl)-6-oxo-3,4,6,7-tetrahydro-2,7-naphthyridine-2(1H)-carboxamide], under 500 nM.
Turning to `O=C(Nc1cc(Cl)c(Br)cc1F)N1CCc2cc(=O)[nH]cc2C1` [Compound 3, N-(4-Bromo-5-chloro-2-fluorophenyl)-6-oxo-3,4,6,7-tetrahydro-2,7-naphthyridine-2(1H)-carboxamide], the IC50 is under 500 nM.
Consider `O=C(Nc1cc(C(F)(F)F)on1)N1CCc2cc(=O)[nH]cc2C1` [Compound 4, 6-Oxo-N-(5-(trifluoromethyl)isoxazol-3-yl)-3,4,6,7-tetrahydro-2,7-naphthyridine-2(1H)-carboxamide], for which the IC50 was under 500 nM.
For `O=C(Nc1cc(Cl)c(C(F)(F)F)cn1)N1CCc2cc(=O)[nH]cc2C1` [Compound 5, N-(4-chloro-5-(trifluoromethyl)pyridin-2-yl)-6-oxo-3,4,6,7-tetrahydro-2,7-naphthyridine-2(1H)-carboxamide] the value was 500 to 5000 nM; for `N#Cc1ccc2c(c1)CCN(C(=O)Nc1cc(C(F)(F)F)on1)C2` [Compound 6, 6-Cyano-N-(5-(trifluoromethyl)isoxazol-3-yl)-3,4-dihydroisoquinoline-2(1H)-carboxamide], 500 to 5000 nM; for `O=C(Nc1nnc(C(F)(F)F)s1)N1CCc2cc(=O)[nH]cc2C1` [Compound 7, 6-Oxo-N-(5-(trifluoromethyl)-1,3,4-thiadiazol-2-yl)-3,4,6,7-tetrahydro-2,7-naphthyridine-2(1H)-carboxamide], 500 to 5000 nM.
For `O=C(Nc1cc(Cl)c(Cl)cn1)N1CCc2cc(=O)[nH]cc2C1` [Compound 8, N-(4,5-Dichloropyridin-2-yl)-6-oxo-3,4,6,7-tetrahydro-2,7-naphthyridine-2(1H)-carboxamide] the value was 500 to 5000 nM; for `O=C(Nc1nnc(C(F)(F)F)s1)N1CCc2cc(F)ccc2C1` [Compound 9, 6-Fluoro-N-(5-(trifluoromethyl)-1,3,4-thiadiazol-2-yl)-3,4-dihydroisoquinoline-2(1H)-carboxamide], under 500 nM; for `O=C(Nc1nnc(C(F)(F)F)s1)N1CCc2cc(Cl)ccc2C1` [Compound 10, 6-Chloro-N-(5-(trifluoromethyl)-1,3,4-thiadiazol-2-yl)-3,4-dihydroisoquinoline-2(1H)-carboxamide], under 500 nM.
Take `O=C(Nc1cc(Cl)c(C(F)(F)F)cc1F)N1CCc2cc(F)ccc2C1` [Compound 11, N-(5-Chloro-2-fluoro-4-(trifluoromethyl)phenyl)-6-fluoro-3,4-dihydroisoquinoline-2(1H)-carboxamide]: the IC50 was under 500 nM.
As to `O=C(Nc1cc(Cl)c(Cl)cn1)N1CCc2cc(F)ncc2C1` [Compound 12, N-(4,5-Dichloropyridin-2-yl)-6-fluoro-3,4-dihydro-2,7-naphthyridine-2(1H)-carboxamide], the IC50 fell in the range of 500 to 5000 nM.
For `O=C(Nc1cc(Cl)c(C(F)(F)F)cn1)N1CCc2cc(F)ncc2C1` [Compound 13, N-(4-Chloro-5-(trifluoromethyl)pyridin-2-yl)-6-fluoro-3,4-dihydro-2,7-naphthyridine-2(1H)-carboxamide] the value was 500 to 5000 nM.
For `O=C1NN=C2CN(C(=O)Nc3cc(Cl)c(C(F)(F)F)cc3F)CC=C2N1` [Compound 14, N-(5-Chloro-2-fluoro-4-(trifluoromethyl)phenyl)-3-oxo-2,4,6,8-tetrahydropyrido[4,3-e][1,2,4]triazine-7(3H)-carboxamide] the value was 500 to 5000 nM.
`O=C(Nc1cc(Cl)c(C(F)(F)F)cc1F)N1CCc2cc(=O)[nH]nc2C1` [Compound 15, N-(5-Chloro-2-fluoro-4-(trifluoromethyl)phenyl)-3-oxo-2,5,6,8-tetrahydropyrido[3,4-c]pyridazine-7(3H)-carboxamide]: the IC50 is under 500 nM.
In the case of `O=C(Nc1cc(Cl)c(C(F)(F)F)cn1)N1CCc2c(ccnc2F)C1` [Compound 16, N-(4-chloro-5-(trifluoromethyl)pyridin-2-yl)-5-fluoro-3,4-dihydro-2,6-naphthyridine-2(1H)-carboxamide], the IC50 was under 500 nM.
On to `O=C(Nc1cc(Cl)c(C(F)(F)F)cc1F)N1CCc2c(ccnc2F)C1` [Compound 17, N-(5-Chloro-2-fluoro-4-(trifluoromethyl)phenyl)-5-fluoro-3,4-dihydro-2,6-naphthyridine-2(1H)-carboxamide], for which the IC50 was under 500 nM.
For `CS(=O)(=O)c1nnc2c(n1)CCN(C(=O)Nc1cc(Cl)c(C(F)(F)F)cc1F)C2` [Compound 18, N-(5-chloro-2-fluoro-4-(trifluoromethyl)phenyl)-3-(methylsulfonyl)-5,8-dihydropyrido[4,3-e][1,2,4]triazine-7(6H)-carboxamide] the value was 500 to 5000 nM; for `O=C(Nc1cc(Cl)c(Cl)cn1)N1CCc2c(ccnc2F)C1` [Compound 19, N-(4,5-Dichloropyridin-2-yl)-5-fluoro-3,4-dihydro-2,6-naphthyridine-2(1H)-carboxamide], under 500 nM; for `CC1CN(C(=O)Nc2cc(Cl)c(C(F)(F)F)cc2F)Cc2cnc(F)cc21` (stereo not shown) [Compound 20, N-(5-Chloro-2-fluoro-4-(trifluoromethyl)phenyl)-6-fluoro-4-methyl-3,4-dihydro-2,7-naphthyridine-2(1H)-carboxamide], 500 to 5000 nM.
For `C=C1CN(C(=O)Nc2cc(Cl)c(C(F)(F)F)cc2F)Cc2cnc(F)cc21` [Compound 22, N-(5-Chloro-2-fluoro-4-(trifluoromethyl)phenyl)-6-fluoro-4-methylene-3,4-dihydro-2,7-naphthyridine-2(1H)-carboxamide] the value was 500 to 5000 nM; for `CC1CN(C(=O)Nc2cc(Cl)c(C(F)(F)F)cc2F)Cc2ccnc(F)c21` (stereo not shown) [Compound 23, N-(5-Chloro-2-fluoro-4-(trifluoromethyl)phenyl)-5-fluoro-4-methyl-3,4-dihydro-2,6-naphthyridine-2(1H)-carboxamide], under 500 nM; for `C=C1CN(C(=O)Nc2cc(Cl)c(C(F)(F)F)cc2F)Cc2ccnc(F)c21` [Compound 24, N-(5-Chloro-2-fluoro-4-(trifluoromethyl)phenyl)-5-fluoro-4-methylene-3,4-dihydro-2,6-naphthyridine-2(1H)-carboxamide], under 500 nM.

Values taken from US20250304574A1, “3,4,6,7-TETRAHYDRO-2,7-NAPHTHYRIDINE-2(1H)-CARBOXAMIDE DERIVATIVES AS GPR65 INHIBITORS FOR THE TREATMENT OF CANCER AND AUTOIMMUNE DISEASES” (Pathios Therapeutics Limited, priority 2022, published 2025).
